What follows are compounds tested against Sodium channel protein type 9 subunit alpha (Homo sapiens, UniProt Q15858) (assay: EFS-FRET Assay: This screen is used to determine the effects of compounds on human Nav1.7 channels, utilizing electrical field stimulation (EFS) system in 96-well plate format on FDSS (Hamamatsu Photonics) platform. The changes of membrane potential are monitored with FRET dye pair, DiSBAC2(3) and PTS 18.).
Sequence of Sodium channel protein type 9 subunit alpha (Q15858 whole entry): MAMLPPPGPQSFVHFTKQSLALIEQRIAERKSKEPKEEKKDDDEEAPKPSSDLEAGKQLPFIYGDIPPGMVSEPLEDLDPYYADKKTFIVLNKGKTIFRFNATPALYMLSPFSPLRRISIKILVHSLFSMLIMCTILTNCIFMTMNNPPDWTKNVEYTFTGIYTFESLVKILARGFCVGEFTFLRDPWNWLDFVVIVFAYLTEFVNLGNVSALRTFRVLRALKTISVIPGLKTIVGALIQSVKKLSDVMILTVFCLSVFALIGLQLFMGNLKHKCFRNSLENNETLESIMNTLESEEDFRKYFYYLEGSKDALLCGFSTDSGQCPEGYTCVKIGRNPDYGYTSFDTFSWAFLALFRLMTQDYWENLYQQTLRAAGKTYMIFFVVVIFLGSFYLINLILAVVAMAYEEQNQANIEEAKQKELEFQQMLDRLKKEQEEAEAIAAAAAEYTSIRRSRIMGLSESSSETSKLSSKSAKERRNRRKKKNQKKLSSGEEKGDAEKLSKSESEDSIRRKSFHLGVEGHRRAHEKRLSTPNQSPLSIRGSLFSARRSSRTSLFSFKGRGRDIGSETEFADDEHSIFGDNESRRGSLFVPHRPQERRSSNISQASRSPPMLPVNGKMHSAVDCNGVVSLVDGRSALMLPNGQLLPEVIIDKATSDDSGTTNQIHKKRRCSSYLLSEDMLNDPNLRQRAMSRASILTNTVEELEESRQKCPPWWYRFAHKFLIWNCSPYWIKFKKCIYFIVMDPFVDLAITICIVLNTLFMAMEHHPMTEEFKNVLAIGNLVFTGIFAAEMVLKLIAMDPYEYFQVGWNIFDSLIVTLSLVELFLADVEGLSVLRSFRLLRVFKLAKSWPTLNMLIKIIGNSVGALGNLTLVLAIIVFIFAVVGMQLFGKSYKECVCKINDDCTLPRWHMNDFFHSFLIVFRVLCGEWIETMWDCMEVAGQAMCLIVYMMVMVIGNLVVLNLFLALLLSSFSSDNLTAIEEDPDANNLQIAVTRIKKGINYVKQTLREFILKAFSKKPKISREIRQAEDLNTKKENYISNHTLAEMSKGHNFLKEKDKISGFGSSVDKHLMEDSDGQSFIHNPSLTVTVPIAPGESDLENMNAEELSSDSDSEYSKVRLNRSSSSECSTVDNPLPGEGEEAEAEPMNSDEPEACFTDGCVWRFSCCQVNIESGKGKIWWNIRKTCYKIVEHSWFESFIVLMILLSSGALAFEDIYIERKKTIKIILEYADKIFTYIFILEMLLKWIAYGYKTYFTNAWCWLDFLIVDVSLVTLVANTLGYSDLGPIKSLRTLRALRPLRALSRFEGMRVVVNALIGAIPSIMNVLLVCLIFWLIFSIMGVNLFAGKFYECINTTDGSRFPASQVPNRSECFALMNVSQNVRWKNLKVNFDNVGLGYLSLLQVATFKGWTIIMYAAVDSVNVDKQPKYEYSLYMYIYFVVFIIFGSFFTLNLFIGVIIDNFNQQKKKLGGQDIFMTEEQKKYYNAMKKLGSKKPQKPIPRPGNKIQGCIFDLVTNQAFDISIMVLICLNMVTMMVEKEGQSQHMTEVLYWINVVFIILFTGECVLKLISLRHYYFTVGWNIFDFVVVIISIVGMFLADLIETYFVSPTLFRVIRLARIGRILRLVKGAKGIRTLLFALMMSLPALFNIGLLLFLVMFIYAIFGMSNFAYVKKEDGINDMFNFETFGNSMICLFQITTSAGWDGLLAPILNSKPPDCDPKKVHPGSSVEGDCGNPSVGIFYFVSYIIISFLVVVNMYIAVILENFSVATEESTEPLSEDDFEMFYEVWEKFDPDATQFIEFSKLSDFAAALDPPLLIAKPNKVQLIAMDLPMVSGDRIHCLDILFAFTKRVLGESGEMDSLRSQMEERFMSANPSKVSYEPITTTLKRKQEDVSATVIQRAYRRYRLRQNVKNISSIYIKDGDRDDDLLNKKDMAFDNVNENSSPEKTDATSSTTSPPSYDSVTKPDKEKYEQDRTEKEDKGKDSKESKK

IC50, < 500 nM:
Cc1cc(OCC2CCC2)cnc1-c1cc(F)cc(OCc2ccc(C(=O)NS(C)(=O)=O)cc2)c1
CS(=O)(=O)NC(=O)c1ccc(COc2cccc(-c3ccc(OCC4CCC4)nc3)c2)cc1
O=C(NS(=O)(=O)C1CC1)c1ccc(COc2ccc(F)c(-c3ccc(OCC4CC4)nc3)c2)c(F)c1
O=C(NS(=O)(=O)C1CC1)c1ccc(COc2cccc(-c3ccc(OCC4CC4)nc3)c2)c(F)c1
CS(=O)(=O)NC(=O)c1ccc(COc2cccc(-c3ccc(OCC4CC(F)(F)C4)nc3)c2)cc1
Cc1cc(OCC2CC2)ncc1-c1cccc(OCc2ccc(C(=O)NS(C)(=O)=O)cc2)c1
O=C(NS(=O)(=O)CC1CC1)c1ccc(COc2cccc(-c3ccc(OCC4CC4)nc3)c2)c(F)c1
Cc1c(OCC2CC2)ncnc1-c1cccc(OCc2ccc(C(=O)NS(C)(=O)=O)cc2)c1
CS(=O)(=O)NC(=O)c1ccc(COc2cc(F)cc(-c3cncc(OCC4CC4)c3)c2)cc1
CS(=O)(=O)NC(=O)c1ccc(COc2cccc(-c3ccc(OCC4CCC(F)(F)CC4)nc3)c2)cc1
O=C(NS(=O)(=O)C1CC1)c1ccc(COc2cccc(-c3ncc(OCC4CC4)cn3)c2)cc1
CN(C)C(=O)c1cc(OCC2CC2)cc(-c2cc(F)cc(OCc3ccc(C(=O)NS(C)(=O)=O)cc3F)c2)c1
CS(=O)(=O)NC(=O)c1ccc(COc2cc(F)cc(-c3ccc(OCC4CCOC4)nc3)c2)cc1 (configuration not stated)
CN(CCO)Cc1cc(OCC2CC2)cc(-c2cc(F)cc(OCc3ccc(C(=O)NS(C)(=O)=O)cc3F)c2)c1
Cc1c(OCC2CC2)ncnc1-c1cccc(OCc2ccc(C(=O)NS(C)(=O)=O)cc2F)c1
CS(=O)(=O)NC(=O)c1ccc(COc2cccc(-c3ccc(OCC4CCOCC4)nc3)c2)c(F)c1
CS(=O)(=O)NC(=O)c1ccc(COc2cccc(-c3ccnc(OCC4CC4)c3)c2)cc1
CS(=O)(=O)NC(=O)c1cc(C2CC2)c(COc2cccc(-c3ccc(OCC4CC4)nc3)c2)cc1F
Cc1nc(OCC2CC2)ccc1-c1cccc(OCc2ccc(C(=O)NS(C)(=O)=O)cc2F)c1
CS(=O)(=O)NC(=O)c1ccc(COc2cccc(-c3cccc(OCC4CC4)n3)c2)c(F)c1
CS(=O)(=O)NC(=O)c1ccc(COc2cccc(-c3cnc(OCC4CCC4)cn3)c2)cc1
O=C(NS(=O)(=O)C(F)(F)F)c1ccc(COc2cc(F)cc(-c3ccc(OCC4CC4)nc3)c2)cc1
CS(=O)(=O)NC(=O)c1ccc(COc2cccc(-c3cncc(OCC4CC4)c3)c2)c(F)c1
O=C(NS(=O)(=O)c1cccs1)c1cc(Cl)c(COc2cccc(-c3ccc(OCC4CC4)nc3)c2)cc1F
CS(=O)(=O)NC(=O)c1ccc(COc2cc(F)cc(-c3ncc(OCC4CCC4)cn3)c2)cc1
CS(=O)(=O)NC(=O)c1ccc(COc2cc(F)cc(-c3cc(OCCO)cc(OCC4CC4)c3)c2)c(F)c1
CS(=O)(=O)NC(=O)c1ccc(COc2cc(F)cc(-c3ccc(OCC4CC4)nc3)c2)cc1
CS(=O)(=O)NC(=O)c1ccc(COc2ccc(F)c(-c3cnc(OCC4CC4)c(Cl)c3)c2)c(F)c1
CS(=O)(=O)NC(=O)c1ccc(COc2cc(-c3cccnc3)cc(-c3ccc(OCC4CC4)nc3)c2)cc1
O=C(NS(=O)(=O)C1CC1)c1ccc(COc2ccc(F)c(-c3ccc(OCC4CC4)nc3)c2)cc1
CS(=O)(=O)NC(=O)c1ccc(COc2cccc(-c3ccc(OCC4CCC4)nc3CO)c2)c(F)c1
CS(=O)(=O)NC(=O)c1ccc(COc2cc(F)cc(-c3ncc(OCC4CC4)cn3)c2)cc1
CC(C)S(=O)(=O)NC(=O)c1ccc(COc2cc(F)cc(-c3ccc(OCC4CC4)nc3)c2)cc1
Cc1cc(OCC2CCC2)cnc1-c1cccc(OCc2ccc(C(=O)NS(C)(=O)=O)cc2)c1
O=C(NS(=O)(=O)C1CC1)c1ccc(COc2cccc(-c3ccc(OCC4CCOCC4)nc3)c2)cc1
CS(=O)(=O)NC(=O)c1ccc(COc2cccc(-c3ccc(OCC4CCC4)nc3CO)c2)cc1
CS(=O)(=O)NC(=O)c1ccc(COc2cc(-c3ccc(OCC4CC4)nc3)ccc2Cl)cc1
CS(=O)(=O)NC(=O)c1ccc(COc2ccc(F)c(-c3cccc(OCC4CC4)n3)c2)c(F)c1
CS(=O)(=O)NC(=O)c1ccc(COc2cccc(-c3cc(OCC4CC4)ccn3)c2)c(F)c1
CS(=O)(=O)NC(=O)c1ccc(COc2cc(F)cc(-c3cnc(OCC4CC4)nc3)c2)cc1
CN(CC1CC1)c1cc(-c2cccc(OCc3ccc(C(=O)NS(C)(=O)=O)cc3F)c2)ccn1
O=C(NS(=O)(=O)c1nccs1)c1ccc(COc2cccc(-c3ccc(OCC4CC4)nc3)c2)c(F)c1
COC1CN(C(=O)c2cc(OCC3CC3)cc(-c3cc(F)cc(OCc4ccc(C(=O)NS(C)(=O)=O)cc4F)c3)c2)C1
O=C(NS(=O)(=O)c1cccs1)c1ccc(COc2cccc(-c3ccc(OCC4CC4)nc3)c2)c(F)c1
CS(=O)(=O)NC(=O)c1ccc(COc2cc(-c3ccccc3)cc(-c3ccc(OCC4CC4)nc3)c2)cc1
CS(=O)(=O)NC(=O)c1ccc(COc2cccc(-c3cnc(OCC4CC4)cn3)c2)c(F)c1
O=C(NS(=O)(=O)c1cccs1)c1ccc(COc2cccc(-c3ccc(OCC4CC4)nc3)c2)cc1
CS(=O)(=O)NC(=O)c1ccc(COc2ccc(F)c(-c3ccc(OCC4CC4)nc3)c2)cc1
CS(=O)(=O)NC(=O)c1ccc(COc2cc(F)cc(-c3ccc(OCC4CC4)nc3)c2)c(F)c1
CS(=O)(=O)NC(=O)c1ccc(COc2cc(F)cc(-c3cccc(OCC4CC4)n3)c2)cc1
CN(C)C(=O)c1cc(-c2cccc(OCc3ccc(C(=O)NS(C)(=O)=O)cc3F)c2)ccc1OCC1CC1
Cc1cc(OCC2CC2)ncc1-c1cccc(OCc2ccc(C(=O)NS(C)(=O)=O)cc2F)c1
Cc1cc(-c2cccc(OCc3ccc(C(=O)NS(C)(=O)=O)cc3)c2)cnc1OCC1CC1
CS(=O)(=O)NC(=O)c1ccc(COc2cccc(-c3cccnc3OCC3CC3)c2)cc1
CS(=O)(=O)NC(=O)c1cc(F)c(COc2cc(F)cc(-c3ccc(OCC4CC4)nc3)c2)cc1F
Cc1cc(OCC2CC2)ncc1-c1cc(F)cc(OCc2ccc(C(=O)NS(C)(=O)=O)cc2)c1
O=C(NS(=O)(=O)c1cccs1)c1ccc(COc2cc(F)cc(-c3ccc(OCC4CC4)nc3)c2)cc1
CS(=O)(=O)NC(=O)c1ccc(COc2cccc(-c3ccn(CC4CC4)n3)c2)c(F)c1
O=C(NS(=O)(=O)C1CC1)c1ccc(COc2cc(F)cc(-c3ccc(OCC4CC4)nc3)c2)cc1
Cc1nc(OCC2CC2)ccc1-c1cc(OCc2ccc(C(=O)NS(C)(=O)=O)cc2F)ccc1F
O=C(NS(=O)(=O)C1CC1)c1ccc(COc2cccc(-c3ccc(OCC4CC4)nc3)c2)cc1
COc1cc(C(=O)NS(C)(=O)=O)ccc1COc1cccc(-c2ccc(OCC3CC3)nc2)c1
CCS(=O)(=O)NC(=O)c1ccc(COc2cc(F)cc(-c3ccc(OCC4CC4)nc3)c2)cc1
CS(=O)(=O)NC(=O)c1cc(OC(F)F)c(COc2cccc(-c3ccc(OCC4CC4)nc3)c2)cc1F
CS(=O)(=O)NC(=O)c1ccc(COc2cccc(-c3ncc(OCC4CC4)cc3F)c2)c(F)c1
CS(=O)(=O)NC(=O)c1ccc(COc2cc(F)cc(-c3ncc(OCC4CC4)cc3F)c2)cc1
O=C(NS(=O)(=O)C1CC1)c1cc(Cl)c(COc2cccc(-c3ccc(OCC4CC4)nc3)c2)cc1F
CS(=O)(=O)NC(=O)c1ccc(COc2cc(F)cc(-c3cc(OCC(N)=O)cc(OCC4CC4)c3)c2)c(F)c1
Cc1nc(OCC2CC2)ccc1-c1cccc(OCc2ccc(C(=O)NS(C)(=O)=O)cc2)c1
CN(C)C(=O)COc1cc(OCC2CC2)cc(-c2cc(F)cc(OCc3ccc(C(=O)NS(C)(=O)=O)cc3F)c2)c1
O=C(NS(=O)(=O)C(F)(F)F)c1ccc(COc2cccc(-c3ccc(OCC4CC4)nc3)c2)cc1
COCCOc1cc(OCC2CC2)cc(-c2cc(F)cc(OCc3ccc(C(=O)NS(C)(=O)=O)cc3F)c2)c1
CS(=O)(=O)NC(=O)c1ccc(COc2cccc(-c3cncc(OCC4CC4)n3)c2)cc1
Cc1cc(OCC2CCC2)cnc1-c1cccc(OCc2ccc(C(=O)NS(C)(=O)=O)cc2F)c1
CS(=O)(=O)NC(=O)c1ccc(COc2cccc(-c3ccc(OCC4CCC4)nc3)c2)nc1
CS(=O)(=O)NC(=O)c1ccc(COc2cccc(-c3ncc(OCC4CC4)cn3)c2)c(F)c1
CC(C)(C)OC(=O)N1CCC(COc2ccc(-c3cccc(OCc4ccc(C(=O)NS(C)(=O)=O)cc4)c3)cn2)CC1
